In PubChem BioAssay (NCI):
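1) Cells in 96-well plates. 2) Compound, 48 h, 5 concentrations. 3) Linear interpolation between surrounding doses. 4) Unreached endpoint = highest concentration. TGI is the concentration that stops growth completely.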

What was measured:
Assay in all cases: NCI-60 cell line screen, 48 h
[1] = system: CAKI-1 renal
[2] = system: HCT-15 colon
[3] = system: MALME-3M melanoma
[4] = system: MDA-MB-231 breast
[5] = system: MDA-MB-435
[6] = system: NCI-H23 lung
[7] = system: SK-MEL-28 melanoma
[8] = system: UACC-62 melanoma
[9] = system: A549 NSCLC
[10] = system: EKVX NSCLC
[11] = system: SK-MEL-2 melanoma

| Compound | TGI [1] [µM] | TGI [2] [µM] | TGI [3] [µM] | TGI [4] [µM] | TGI [5] [µM] | TGI [6] [µM] | TGI [7] [µM] | TGI [8] [µM] | TGI [9] [µM] | TGI [10] [µM] | TGI [11] [µM] |
| --- | --- | --- | --- | --- | --- | --- | --- | --- | --- | --- | --- |
| O=C(NN=C1CCCCC1)NN=C1CCCCC1 | > 100 | > 100 | > 100 | > 100 | > 100 | > 100 | > 100 | > 100 | – | – | – |
| O=C1C[C@H](c2ccc(O)c(O)c2)Oc2cc(O)cc(O)c21 | > 100 | > 100 | > 100 | – | – | > 100 | > 100 | > 100 | > 100 | > 100 | > 100 |
| COc1cccc(-c2cc(=O)c3cc(Cl)cnc3[nH]2)c1 | 71.8 | 31.9 | > 100 | > 65.5 | – | 8.3 | > 100 | > 55.6 | 31.6 | > 100 | 98.2 |
| C=CCC(CNC(=O)OCc1ccccc1)OC(=O)OCc1ccccc1 (stereo unspecified) | > 100 | > 100 | – | > 100 | > 100 | > 100 | > 100 | > 100 | > 100 | > 100 | > 100 |
| N=C(c1cccs1)C1(N2CCCCC2)CCCCC1 | 32.9 | 29.7 | 30.2 | 31 | 37.8 | 43.5 | – | 31 | 60.2 | 41.3 | 31.3 |
| Cc1nc2c(=O)[nH]c3ccc(Cl)cc3c2o1 | > 100 | > 100 | > 100 | > 100 | > 100 | > 100 | – | > 100 | > 100 | > 100 | > 100 |
| CC1(C)CC[C@]2(C(=O)O)[C@H](O)C[C@]3(C)C(=CC[C@@H]4[C@@]5(C)CC[C@H](OC6OC(C(=O)O)C(O)C(O)C6O)C(C)(C)[C@@H]5CC[C@]43C)[C@@H]2C1 (stereo partly specified) | > 100 | > 100 | > 100 | – | > 100 | > 100 | 37.1 | 61.9 | > 100 | > 100 | > 100 |
| CC1(C)C2CCC(N)(C2)C1O (stereo unspecified) | > 100 | > 100 | – | – | > 100 | > 100 | > 100 | > 100 | > 100 | > 100 | > 100 |
| C=CCC(SC)C1=C(C)C(=O)c2ccccc21 (stereo unspecified) | – | > 10 | > 10 | > 10 | > 10 | > 10 | > 10 | > 10 | > 10 | > 10 | > 10 |
| CN(CCO)/N=N/c1[nH]ncc1C(N)=O | > 100 | > 100 | > 100 | – | – | > 100 | > 100 | > 100 | > 100 | > 100 | > 100 |
| CC(C)c1cccc(C(C)C)c1OS(=O)(=O)NC(=O)OC(C(F)(F)F)C(F)(F)F | > 100 | > 100 | > 100 | > 100 | > 100 | > 100 | > 100 | – | > 100 | > 100 | > 100 |
| CC(/C=N/NC1=NCCCN1)=N\NC1=NCCCN1 | > 100 | > 100 | > 100 | > 100 | > 100 | > 100 | > 100 | > 100 | > 100 | > 100 | – |
| COc1ccc(N2C(=O)C3CC4=CC(=O)C[C@H]4[C@H]32)cc1 (stereo partly specified) | 87.6 | > 100 | – | > 100 | > 100 | > 100 | > 100 | > 100 | > 100 | – | > 100 |
| c1ccc(C2[C@@H]3CCCc4ccccc4C3=NN2c2ccccc2)cc1 (stereo partly specified) | – | > 100 | > 100 | – | – | > 100 | > 100 | – | > 100 | > 100 | – |
| CC(=O)OCC1OC(N2C(S)=C(C#N)C(c3ccco3)C(C(C)=O)=C2c2ccccc2)C(OC(C)=O)C(OC(C)=O)C1OC(C)=O (stereo unspecified) | > 100 | > 100 | > 100 | > 100 | > 100 | > 100 | > 100 | > 100 | > 100 | – | > 100 |
| OC(c1ccccc1)(c1cccnc1)C(O)(c1ccccc1)c1cccnc1 (stereo unspecified) | > 100 | > 100 | > 100 | > 100 | > 100 | > 100 | – | > 100 | > 100 | > 100 | > 100 |
| OC(CN1CCCCC1)c1ccc(/C=C/c2ccc(Cl)cc2)cc1 (stereo unspecified) | – | 76.3 | > 100 | > 100 | > 100 | > 100 | 42.6 | 44.9 | > 100 | > 100 | 50.9 |
| CN1C(=O)N(C)C2(CCN(CCCCCCF)CC2)C1=O | > 100 | > 100 | > 100 | > 100 | 71.1 | > 100 | > 100 | > 100 | > 100 | > 100 | – |
| CCCCNC(=S)Nc1nc(C(=O)NNC(=O)c2ccccc2)cs1 | 39 | 26.1 | 38.8 | 29 | 47.8 | – | – | 41.4 | 55.2 | > 100 | 35.9 |
| Cc1cccc(NC2=NCCO2)c1Cl | – | > 100 | > 100 | > 100 | > 100 | > 100 | > 100 | > 100 | > 100 | > 100 | – |
| CC1CC[C@@]2(OC1)OC1C[C@H]3[C@@H]4CCC5CC(O)CC[C@]5(C)[C@H]4C/C(=N\N(C)C)[C@]3(C)C1[C@@H]2C (stereo partly specified) | – | 60.3 | > 100 | 50.2 | 58.2 | 42.6 | > 100 | > 100 | > 100 | – | 45.6 |
| COc1ccc(C2C(Cl)C(=O)N2NC(=O)Cc2ccccc2)cc1OC (stereo unspecified) | > 100 | > 100 | > 100 | – | – | > 100 | > 100 | > 100 | > 100 | > 100 | > 100 |
